Experiments:
recombinant human PAI-1 [1] = molecular target: T1, recombinant human PAI-1 (Homo sapiens, UniProt P05121); assay: Test Example 2: Human PAI-1 Inhibitory Activity (pH 7.4 HEPES buffer, 10 minutes incubation with two-chain tPA); format: biochemical; parameters: purchased Molecular Innovations, Inc; conditions: read-out: Inhibition Rate of PAI-1 Activity (%)
Experimental: 0.1 M HEPES, 0.1 M NaCl. 1 mM EDTA. 0.1 % Polyethylene glycol 8,000 (Hampton Research Corporation),
2 mM Dimethyldecylphoshine oxide [Apo-10] (Fluka Corporation)

recombinant human PAI-1 [2] = molecular target: T1, recombinant human PAI-1; assay: biochemical; conditions: for inhibition at 5 µM: read-out: Inhibition Rate of PAI-1 Activity (%), Compound Concentration 5µM; for inhibition at 10 µM: read-out: Inhibition Rate of PAI-1 Activity (%), Compound Concentration 10µM; for inhibition at 25 µM: read-out: Inhibition Rate of PAI-1 Activity (%), Compound Concentration 25µM
recombinant rat PAI-1 = molecular target: T2, recombinant rat PAI-1 (Rattus norvegicus, UniProt P20961); assay: biochemical; conditions: read-out: Inhibition Rate of PAI-1 Activity (%)
T2 sequence (P20961 24-402): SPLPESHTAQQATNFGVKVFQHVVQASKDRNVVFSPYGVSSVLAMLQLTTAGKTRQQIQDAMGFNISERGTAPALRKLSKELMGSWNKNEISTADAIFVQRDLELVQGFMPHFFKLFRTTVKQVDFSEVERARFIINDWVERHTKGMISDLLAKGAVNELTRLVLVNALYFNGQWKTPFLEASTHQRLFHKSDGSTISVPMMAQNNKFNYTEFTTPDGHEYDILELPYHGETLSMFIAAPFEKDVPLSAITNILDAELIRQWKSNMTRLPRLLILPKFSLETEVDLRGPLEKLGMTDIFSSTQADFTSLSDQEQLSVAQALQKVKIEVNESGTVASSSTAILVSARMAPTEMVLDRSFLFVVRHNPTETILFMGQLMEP

recombinant human PAI-1 [3] = molecular target: T1, recombinant human PAI-1; assay: Test Example 4: Human PAI-1 Inhibitory Activity (amount of PAI-1 bound to plate-coated one-chain tPA, ELISA); format: biochemical; parameters: purchased Molecular Innovations, Inc; conditions: human PAI-1 bound to tPA, read-out: Inhibition Rate of PAI-1 Activity (%); for inhibition at 0.3 µM: Compound Concentration 0.3µM; for inhibition at 1 µM: Compound Concentration 1µM; for inhibition at 3 µM: Compound Concentration 3µM
In short: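 Compound (final 0.1 to 3.0 µM, 0.2% DMSO) preincubated 15 min on ice with recombinant human PAI-1 (50 ng/ml) in phosphate buffer pH 6.6, then 60 min at room temperature on one-chain tPA-coated plates. Bound PAI-1 detected by anti-PAI-1 antibody, AP-labelled secondary and p-nitrophenyl phosphate at 405 nm; quantified against PAI-1 standard curve, inhibition relative to compound-free PAI-1.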

T1 sequence (P05121 24-402): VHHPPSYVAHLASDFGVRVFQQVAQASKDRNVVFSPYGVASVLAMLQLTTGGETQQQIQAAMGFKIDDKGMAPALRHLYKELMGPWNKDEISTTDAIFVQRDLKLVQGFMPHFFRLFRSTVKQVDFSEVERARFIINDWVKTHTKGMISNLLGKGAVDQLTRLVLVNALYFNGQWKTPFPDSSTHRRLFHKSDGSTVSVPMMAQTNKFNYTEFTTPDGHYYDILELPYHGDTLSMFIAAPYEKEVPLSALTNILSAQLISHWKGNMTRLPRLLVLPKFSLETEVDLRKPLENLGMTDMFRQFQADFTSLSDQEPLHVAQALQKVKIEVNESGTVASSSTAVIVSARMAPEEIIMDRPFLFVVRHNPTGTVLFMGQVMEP

Structure (SMILES)	inhibition at 0.1 µM (recombinant human PAI-1 [1])	inhibition at 0.3 µM (recombinant human PAI-1 [1])	inhibition at 1 µM (recombinant human PAI-1 [1])	inhibition at 3 µM (recombinant human PAI-1 [1])	inhibition at 5 µM (recombinant human PAI-1 [2])	inhibition at 10 µM (recombinant human PAI-1 [2])	inhibition at 25 µM (recombinant human PAI-1 [2])	inhibition at 0.3 µM (recombinant rat PAI-1)	inhibition at 1 µM (recombinant rat PAI-1)	inhibition at 3 µM (recombinant rat PAI-1)	inhibition at 10 µM (recombinant rat PAI-1)	inhibition at 0.3 µM (recombinant human PAI-1 [3])	inhibition at 1 µM (recombinant human PAI-1 [3])	inhibition at 3 µM (recombinant human PAI-1 [3])
CCCOc1ccc(N(Cc2ccc(C(C)(C)C)cc2)C(=O)C(=O)O)c(-c2ccc(OC(F)(F)F)cc2)c1 [Compound 198]	11%	8%	33%	> 99%	79%	95%	85%	4%	12%	84%	89%	6%	4%	33%
CCC(CC)Oc1ccc(-c2ccc(OC(F)(F)F)cc2)cc1N(Cc1ccc(C(C)(C)C)cc1)C(=O)C(=O)O [Compound 199]	9%	13%	64%	> 99%	83%	89%		0%	35%	97%	> 99%	18%	41%	73%
CCCCc1ccc(CN(C(=O)C(=O)O)c2ccc(-c3ccc(C(C)(C)C)cc3)cc2)cc1 [Compound 206]	3%	13%	66%	> 99%	78%	92%	89%	3%	29%	90%	88%	0%	17%	40%
CCN(CC)c1ccc(N(Cc2ccc(C(C)(C)C)cc2)C(=O)C(=O)O)c(-c2ccc(OC(F)(F)F)cc2)c1 [Compound 208]	10%	1%	36%	99%	89%	98%		0%	12%	82%	81%	0%	6%	36%
CCCCC(c1ccc(C(C)(C)C)cc1)N(C(=O)C(=O)O)c1ccc(-c2ccc(OC(F)(F)F)cc2)cc1 (stereo not shown) [Compound 221]	0%	6%	55%	> 99%	80%	86%		10%	37%	89%		0%	13%	38%
CCCCCOc1ccc(-c2ccc(OC(F)(F)F)cc2)cc1N(CCCCc1ccccc1)C(=O)C(=O)O [Compound 226]	0%	17%	89%	99%	85%	92%		9%	49%	92%	> 99%	11%	26%	65%
